According to ChEMBL document CHEMBL1201862, “PubChem BioAssay data set” (2004):
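1) Cells in 96-well plates. 2) Compound, 48 h, 5 concentrations. 3) Linear interpolation between surrounding doses. 4) Unreached endpoint = highest concentration. The concentration for 50% growth inhibition is given as GI50.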 Active and inactive are the calls of the source. No stated cut-off is given here; in the data, active = GI50 up to about 1.1 µM and inactive = higher.

Key:
Assay in all cases: NCI anticancer screen, dose series, 48 h
NCI-H23 = tested on: NCI-H23
Hs-578T = tested on: Hs-578T
NCI-H460 = tested on: NCI-H460
Malme-3M = tested on: Malme-3M
ACHN = tested on: ACHN
HCT-15 = tested on: HCT-15
KM12 = tested on: KM12
OVCAR-8 = tested on: OVCAR-8
CAKI-1 = tested on: CAKI-1
MDA-MB-435 = tested on: MDA-MB-435
A498 = tested on: A498
M14 = tested on: M14
PC-3 = tested on: PC-3
SNB-19 = tested on: SNB-19
OVCAR-5 = tested on: OVCAR-5
HOP-92 = tested on: HOP-92
SF-295 = tested on: SF-295
SR = tested on: SR
786-0 = tested on: 786-0
SF-268 = tested on: SF-268
SK-OV-3 = tested on: SK-OV-3
LOX IMVI = tested on: LOX IMVI
SW-620 = tested on: SW-620
DU-145 = tested on: DU-145
HT-29 = tested on: HT-29
TK-10 = tested on: TK-10
MDA-N = tested on: MDA-N
RXF 393 = tested on: RXF 393
SK-MEL-2 = tested on: SK-MEL-2
HL-60 = tested on: HL-60
HCT-116 = tested on: HCT-116
SK-MEL-5 = tested on: SK-MEL-5
NCI/ADR-RES = tested on: NCI/ADR-RES
RPMI-8226 = tested on: RPMI-8226
SN12C = tested on: SN12C
T47D = tested on: T47D
OVCAR-4 = tested on: OVCAR-4
MCF7 = tested on: MCF7
HOP-62 = tested on: HOP-62
NCI-H522 = tested on: NCI-H522
COLO 205 = tested on: COLO 205
NCI-H226 = tested on: NCI-H226
IGROV-1 = tested on: IGROV-1
UACC-62 = tested on: UACC-62
A549 = tested on: A549
BT-549 = tested on: BT-549
U-251 = tested on: U-251
OVCAR-3 = tested on: OVCAR-3
UACC-257 = tested on: UACC-257
EKVX = tested on: EKVX
SNB-75 = tested on: SNB-75
MDA-MB-231 = tested on: MDA-MB-231
K562 = tested on: K562
MOLT-4 = tested on: MOLT-4
UO-31 = tested on: UO-31
HCC 2998 = tested on: HCC 2998
SF-539 = tested on: SF-539
SK-MEL-28 = tested on: SK-MEL-28

Measured: GI50

CC1=NN(c2ccccc2Cl)C2(C1)C(Cl)C(=O)N2c1nc2ccccc2s1 (stereo not drawn)
44.3 µM: HCT-15
inactive: NCI-H23 48.4 µM | Hs-578T > 100 µM | NCI-H460 79.6 µM | Malme-3M 92.5 µM | ACHN 94.8 µM | KM12 55.6 µM | OVCAR-8 38.1 µM | CAKI-1 50.2 µM | MDA-MB-435 41.8 µM | A498 > 100 µM | M14 52.4 µM | PC-3 > 100 µM | SNB-19 52.7 µM | OVCAR-5 > 100 µM | HOP-92 88.7 µM | SF-295 61.8 µM | SR 21.1 µM | 786-0 31.8 µM | SF-268 64.9 µM | SK-OV-3 24.7 µM | LOX IMVI 15.5 µM | SW-620 63.4 µM | DU-145 47.2 µM | HT-29 51.5 µM | TK-10 > 100 µM | MDA-N 62.7 µM | RXF 393 39.1 µM | SK-MEL-2 48.9 µM | HL-60 25.5 µM | HCT-116 44.9 µM | SK-MEL-5 32.3 µM | NCI/ADR-RES 65 µM | RPMI-8226 21.7 µM | SN12C 31.8 µM | T47D 44.3 µM | OVCAR-4 > 100 µM | MCF7 44.8 µM | HOP-62 29.2 µM | NCI-H522 17.9 µM | COLO 205 61.1 µM | NCI-H226 50.5 µM | IGROV-1 42.1 µM | UACC-62 44.6 µM | A549 55.7 µM | BT-549 54.6 µM | U-251 28.6 µM | OVCAR-3 17.3 µM | UACC-257 > 100 µM | EKVX > 100 µM | SNB-75 20.8 µM | MDA-MB-231 46.6 µM | K562 37.5 µM | MOLT-4 30 µM | UO-31 61.8 µM | HCC 2998 > 100 µM

O=c1cc(-c2ccc(O)c(O)c2)oc2cc(O[C@H]3O[C@H](CO)[C@@H](O)[C@H](O)[C@H]3O)cc(O)c12
41.5 µM: HCT-15
inactive: NCI-H23 > 100 µM | Hs-578T 29.3 µM | NCI-H460 34.8 µM | Malme-3M > 100 µM | ACHN 65.5 µM | KM12 38 µM | OVCAR-8 > 100 µM | CAKI-1 89.9 µM | MDA-MB-435 > 100 µM | A498 78.2 µM | M14 > 100 µM | PC-3 70.6 µM | SF-539 > 100 µM | SNB-19 75.9 µM | OVCAR-5 > 100 µM | HOP-92 > 100 µM | SF-295 > 100 µM | SR 5.69 µM | 786-0 > 100 µM | SF-268 62.1 µM | SK-OV-3 > 100 µM | LOX IMVI 35.6 µM | SW-620 > 100 µM | DU-145 > 100 µM | HT-29 67.8 µM | TK-10 > 100 µM | MDA-N > 100 µM | RXF 393 > 100 µM | SK-MEL-28 59.3 µM | SK-MEL-2 99.8 µM | HL-60 37.7 µM | HCT-116 28.8 µM | SK-MEL-5 70.1 µM | NCI/ADR-RES > 100 µM | RPMI-8226 73.5 µM | SN12C > 100 µM | T47D 89.1 µM | OVCAR-4 > 100 µM | MCF7 > 100 µM | HOP-62 > 100 µM | NCI-H522 41.3 µM | COLO 205 > 100 µM | NCI-H226 > 100 µM | IGROV-1 > 100 µM | UACC-62 93.1 µM | A549 79.8 µM | BT-549 > 100 µM | U-251 > 100 µM | OVCAR-3 81.7 µM | UACC-257 > 100 µM | EKVX 56.6 µM | SNB-75 20.2 µM | MDA-MB-231 > 100 µM | MOLT-4 21.4 µM | UO-31 11.2 µM | HCC 2998 > 100 µM
